According to the OPERA property sets (Mansouri et al. 2018):
In brackets after ≈: the same amount, converted by molar mass.

Conditions: 20 °C

First: Clc1ccc(Cl)c(-c2c(Cl)ccc(Cl)c2Cl)c1
Second: Clc1cc(Cl)c(-c2ccc(Cl)c(Cl)c2Cl)cc1Cl
The solubility of the first is 16-fold higher: 64.6 nM (≈ 21.1 ng/mL) for the first, 4.16 nM (≈ 1.5 ng/mL) for the second.

Molecule `Clc1ccc(-c2cc(Cl)c(Cl)c(Cl)c2Cl)c(Cl)c1` has a solubility of 3.02 nM (≈ 1.09 ng/mL).

Same assay, conditions: 25 °C

Going from `Clc1cccc(-c2c(Cl)cccc2Cl)c1Cl` to `Clc1ccc(-c2c(Cl)cccc2Cl)c(Cl)c1Cl`, the solubility falls from 501 nM (≈ 146 ng/mL) to 166 nM (≈ 54.2 ng/mL) (3-fold).

`Clc1ccccc1-c1c(Cl)c(Cl)cc(Cl)c1Cl` and `Clc1cc(Cl)c(Cl)c(-c2ccccc2)c1Cl` are within 1.5-fold of each other in solubility: 39.8 nM (≈ 13 ng/mL) for the first, 56.2 nM (≈ 16.4 ng/mL) for the second.

Compared with `Clc1cc(Cl)cc(-c2c(Cl)c(Cl)cc(Cl)c2Cl)c1`, `Clc1cc(Cl)cc(-c2c(Cl)ccc(Cl)c2Cl)c1` is 2.1-fold higher in solubility: 5.38 nM (≈ 1.94 ng/mL) for the first, 11.2 nM (≈ 3.66 ng/mL) for the second.

`Clc1cc(-c2c(Cl)cc(Cl)c(Cl)c2Cl)c(Cl)c(Cl)c1Cl` and `Clc1cc(-c2c(Cl)c(Cl)cc(Cl)c2Cl)c(Cl)c(Cl)c1Cl` are within 1.5-fold of each other in solubility: 0.38 nM (≈ 0.163 ng/mL) for the first, 0.513 nM (≈ 0.22 ng/mL) for the second.

Going from `Clc1ccc(Cl)c(-c2c(Cl)cc(Cl)c(Cl)c2Cl)c1` to `Clc1cccc(-c2c(Cl)cc(Cl)c(Cl)c2Cl)c1Cl`, the solubility falls from 9.77 nM (≈ 3.53 ng/mL) to 3.31 nM (≈ 1.19 ng/mL) (3-fold).

First: Clc1ccc(-c2c(Cl)ccc(Cl)c2Cl)c(Cl)c1
Second: Clc1ccc(-c2c(Cl)cccc2Cl)c(Cl)c1
The solubility of the first is 3.3-fold lower: 67.7 nM (≈ 22.1 ng/mL) for the first, 224 nM (≈ 65.4 ng/mL) for the second.

Going from `Clc1cc(-c2c(Cl)cccc2Cl)c(Cl)c(Cl)c1Cl` to `Clc1cccc(-c2cc(Cl)c(Cl)c(Cl)c2Cl)c1Cl`, the solubility falls from 7.41 nM (≈ 2.68 ng/mL) to 3.8 nM (≈ 1.37 ng/mL) (2-fold).

First: Clc1cc(Cl)c(-c2c(Cl)c(Cl)cc(Cl)c2Cl)c(Cl)c1
Second: Clc1cc(Cl)c(-c2cc(Cl)c(Cl)c(Cl)c2Cl)c(Cl)c1
The solubility of the first is 1.6-fold higher: 3.24 nM (≈ 1.28 ng/mL) for the first, 2.09 nM (≈ 0.826 ng/mL) for the second.

`Clc1ccc(-c2c(Cl)c(Cl)cc(Cl)c2Cl)c(Cl)c1Cl` and `Clc1cc(-c2c(Cl)ccc(Cl)c2Cl)c(Cl)c(Cl)c1Cl` are within 1.5-fold of each other in solubility: 3.8 nM (≈ 1.5 ng/mL) for the first, 2.57 nM (≈ 1.02 ng/mL) for the second.

First: Clc1cc(-c2c(Cl)ccc(Cl)c2Cl)cc(Cl)c1Cl
Second: Clc1cc(-c2c(Cl)c(Cl)cc(Cl)c2Cl)cc(Cl)c1Cl
The solubility of the first is 6.8-fold higher: 5.37 nM (≈ 1.94 ng/mL) for the first, 0.794 nM (≈ 0.314 ng/mL) for the second.

First: Clc1cc(Cl)c(Cl)c(-c2cc(Cl)c(Cl)cc2Cl)c1
Second: Clc1cc(Cl)c(-c2cc(Cl)c(Cl)cc2Cl)c(Cl)c1
The solubility of the first is 2.9-fold lower: 2.63 nM (≈ 0.949 ng/mL) for the first, 7.59 nM (≈ 2.74 ng/mL) for the second.

First: Clc1ccc(-c2c(Cl)cccc2Cl)cc1Cl
Second: Clc1cc(Cl)c(-c2ccc(Cl)c(Cl)c2)c(Cl)c1
The solubility of the first is 7.8-fold higher: 95.5 nM (≈ 27.9 ng/mL) for the first, 12.3 nM (≈ 4.02 ng/mL) for the second.

First: Clc1cc(Cl)c(-c2cc(Cl)c(Cl)c(Cl)c2)cc1Cl
Second: Clc1cc(-c2cc(Cl)c(Cl)c(Cl)c2)cc(Cl)c1Cl
The solubility of the first is 4.4-fold higher: 6.17 nM (≈ 2.23 ng/mL) for the first, 1.41 nM (≈ 0.51 ng/mL) for the second.

`Clc1ccc(-c2cc(Cl)cc(Cl)c2Cl)c(Cl)c1` and `Clc1ccc(-c2c(Cl)cc(Cl)cc2Cl)c(Cl)c1` are within 1.5-fold of each other in solubility: 15.1 nM (≈ 4.94 ng/mL) for the first, 21.9 nM (≈ 7.14 ng/mL) for the second.

`Clc1cc(Cl)c(-c2c(Cl)cc(Cl)c(Cl)c2Cl)c(Cl)c1Cl` and `Clc1cc(Cl)c(-c2c(Cl)c(Cl)cc(Cl)c2Cl)c(Cl)c1Cl` are within 1.5-fold of each other in solubility: 0.794 nM (≈ 0.341 ng/mL) for the first, 0.631 nM (≈ 0.271 ng/mL) for the second.

Compared with `Clc1cc(Cl)cc(-c2c(Cl)c(Cl)c(Cl)c(Cl)c2Cl)c1`, `Clc1cc(Cl)c(-c2c(Cl)c(Cl)c(Cl)c(Cl)c2Cl)c(Cl)c1` is 2.4-fold lower in solubility: 0.794 nM (≈ 0.314 ng/mL) for the first, 0.331 nM (≈ 0.142 ng/mL) for the second.

Going from `Clc1ccc(-c2ccccc2)c(Cl)c1Cl` to `Clc1cccc(-c2ccc(Cl)c(Cl)c2Cl)c1`, the solubility falls from 661 nM (≈ 170 ng/mL) to 170 nM (≈ 49.6 ng/mL) (3.9-fold).

Going from `Clc1ccc(Cl)c(-c2c(Cl)c(Cl)c(Cl)c(Cl)c2Cl)c1Cl` to `Clc1cc(Cl)c(-c2c(Cl)c(Cl)c(Cl)c(Cl)c2Cl)c(Cl)c1Cl`, the solubility falls from 0.794 nM (≈ 0.341 ng/mL) to 0.0788 nM (≈ 0.0366 ng/mL) (10-fold).

First: Clc1cc(-c2c(Cl)cc(Cl)c(Cl)c2Cl)cc(Cl)c1Cl
Second: Clc1cc(-c2cc(Cl)c(Cl)c(Cl)c2Cl)cc(Cl)c1Cl
The solubility of the first is 2.4-fold lower: 0.794 nM (≈ 0.314 ng/mL) for the first, 1.9 nM (≈ 0.753 ng/mL) for the second.

Compared with `Clc1ccc(-c2c(Cl)cc(Cl)c(Cl)c2Cl)cc1`, `Clc1ccc(-c2cc(Cl)cc(Cl)c2Cl)cc1` is 15-fold higher in solubility: 11.2 nM (≈ 3.66 ng/mL) for the first, 170 nM (≈ 49.6 ng/mL) for the second.

Going from `Clc1cc(Cl)c(-c2ccc(Cl)c(Cl)c2Cl)c(Cl)c1` to `Clc1cc(Cl)c(-c2cccc(Cl)c2Cl)c(Cl)c1`, the solubility rises from 5.76 nM (≈ 2.08 ng/mL) to 39.8 nM (≈ 13 ng/mL) (6.9-fold).

Going from `Clc1cc(Cl)c(-c2ccccc2Cl)c(Cl)c1` to `Clc1cc(Cl)c(-c2cc(Cl)ccc2Cl)c(Cl)c1`, the solubility falls from 224 nM (≈ 65.4 ng/mL) to 33.9 nM (≈ 11.1 ng/mL) (6.6-fold).

Compared with `Clc1cc(Cl)c(-c2c(Cl)c(Cl)c(Cl)c(Cl)c2Cl)cc1Cl`, `Clc1ccc(-c2c(Cl)c(Cl)c(Cl)c(Cl)c2Cl)c(Cl)c1` is 3.4-fold higher in solubility: 0.316 nM (≈ 0.136 ng/mL) for the first, 1.07 nM (≈ 0.423 ng/mL) for the second.

First: Clc1cc(Cl)cc(-c2ccccc2Cl)c1
Second: Clc1ccc(-c2ccccc2Cl)c(Cl)c1
The solubility of the first is 1.6-fold higher: 501 nM (≈ 129 ng/mL) for the first, 323 nM (≈ 83.3 ng/mL) for the second.

Compared with `Clc1cc(Cl)c(Cl)c(-c2c(Cl)cc(Cl)c(Cl)c2Cl)c1`, `Clc1cc(Cl)c(-c2c(Cl)ccc(Cl)c2Cl)c(Cl)c1Cl` is 3.4-fold higher in solubility: 2.09 nM (≈ 0.826 ng/mL) for the first, 7.08 nM (≈ 2.8 ng/mL) for the second.

Compared with `Clc1ccc(Cl)c(-c2c(Cl)c(Cl)cc(Cl)c2Cl)c1Cl`, `Clc1cccc(-c2c(Cl)c(Cl)cc(Cl)c2Cl)c1` is 1.5-fold higher in solubility: 11.5 nM (≈ 4.54 ng/mL) for the first, 17.4 nM (≈ 5.67 ng/mL) for the second.

First: Clc1ccc(-c2cc(Cl)c(Cl)cc2Cl)c(Cl)c1
Second: Clc1cccc(-c2cc(Cl)c(Cl)cc2Cl)c1
The solubility of the first is 6.6-fold lower: 11.2 nM (≈ 3.66 ng/mL) for the first, 74.1 nM (≈ 21.7 ng/mL) for the second.

For `Clc1ccc(-c2ccccc2)cc1Cl`, the solubility was 407 nM (≈ 90.9 ng/mL).
